The source of these data is US6255497A, “Method for the inhibition of ALDH-I useful in the treatment of alcohol dependence or alcohol abuse” (priority 1998, dated 2001).

In brackets after ≈: the same amount, converted by molar mass. Like-named read-outs stand apart in the source and are kept apart here. Where only a bound is given, the exact number is not on record here.

The target of data set [1] is T1, ALDH-II (Homo sapiens, UniProt P00352).
T1 sequence (P00352 1-501): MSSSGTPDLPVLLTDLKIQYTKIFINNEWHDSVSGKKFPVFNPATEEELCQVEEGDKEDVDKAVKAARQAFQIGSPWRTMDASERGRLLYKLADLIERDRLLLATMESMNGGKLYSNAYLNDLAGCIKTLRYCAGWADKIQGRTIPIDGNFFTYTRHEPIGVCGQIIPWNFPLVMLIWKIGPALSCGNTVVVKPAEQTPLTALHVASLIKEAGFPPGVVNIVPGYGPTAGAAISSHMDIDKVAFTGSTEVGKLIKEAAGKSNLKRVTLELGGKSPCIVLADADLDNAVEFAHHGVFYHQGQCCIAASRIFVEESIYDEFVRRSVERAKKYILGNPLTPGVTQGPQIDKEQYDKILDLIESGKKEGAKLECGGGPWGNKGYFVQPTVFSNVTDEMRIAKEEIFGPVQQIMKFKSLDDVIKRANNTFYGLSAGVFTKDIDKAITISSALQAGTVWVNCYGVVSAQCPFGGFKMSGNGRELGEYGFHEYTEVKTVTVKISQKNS
The data set is described as follows: ALDH-II inhibition by structurally related compounds, acetaldehyde as substrate. Type of data set: biochemical. Details: A liver sample (50 g wet weight) with the usual Caucasian ALDH phenotype (both ALDH-I and ALDH-II present); from tissue; host or cells: human liver (autopsy), purified by CM-52, AMP-agarose and DEAE HPLC. As to the method: (§1) *ALDH activities were assayed at 25° C. in 0.1 M sodium
(§2) pyrophosphate buffer pH 9.5 containins 0.15 M KCl, 1 mM NAD^+, various
(§3) concentrations of inhibitors and 5 and 200 μM acetaldehyde for ALDH-I
(§4) and ALDH-II, respectively.
(§5) For the study of the inhibition of ALDH-I by structurally related compounds to generate the data shown in Tables IV and V, each individual compound was dissolved at different concentrations in methanol and was added to the assay medium as 10 μL aliquots. For controls, 10 […] of methanol was added to the assay medium. In a standard ALDH-I assay, the assay medium contains 0.1 M sodium pyrophosphate pH 9.5, 0.15 M KCl, 1 mM NAD^+, 1% methanol, 5 μM acetaldehyde, 5-10 nM ALDH-I and various concentrations of inhibitor. The enzyme reaction rates were measured by monitoring the production of NADH at 340 nm (ε=6.22 mM^-1 cm^-1) with a Varian Cary 219 spectrophotometer thermostated at 25° C. (Fong et al., 1989, supra). The inhibition of ALDH-I by the inhibitors was calculated as: [formula]
(§6) where Vo is the enzyme reaction rate measured in the absence of inhibitor, and where Vi is the enzyme reaction rate measured in the presence of inhibitor. […] IC50 values are related to the underlying Ki values.

A further data set concerns ALDH-I or ALDH-II. As to the kind of experiment: Survey of structurally related compounds for ALDH inhibition. It is filed as biochemical, human. The procedure:
as §5, §6

The target of data set [2] is T1, ALDH-II. As to the kind of experiment: Competitive inhibition of ALDH-II with acetaldehyde as substrate. It is filed as biochemical. Details: A liver sample (50 g wet weight) with the usual Caucasian ALDH phenotype (both ALDH-I and ALDH-II present); from tissue; host or cells: human liver (autopsy), purified by CM-52, AMP-agarose and DEAE HPLC. As to conditions: acetaldehyde as substrate, competitive; read-out: Ki, ALDH-II.

For the next data set, the system named is golden hamsters. The data set is described as follows: Dose effect on free choice ethanol intake in golden hamsters, i.p. It is filed as in vivo, golden hamster. To be noted: 10 mg/day, i.p. The text has this: It is common practice in quantitative drug studies with rodents to use intraperitoneal (i.p.) administration to deliver drug doses accurately (Goodman and Gilman, 1975, The Pharmacological Basis of Therapeutics, 5th ed., Macmillan, N.Y., p. 8). In particular, this method avoids variability introduced by technical difficulties of oral administration via feeding (full versus empty stomach, etc.), variations in drug transport in the gastrointestinal tract (variations in intestinal fauna and flora, individual variations in absorption rate expected of outbred animals, etc.) and other factors. […] As a control 1 ml of sterile saline was injected i.p. daily during the baseline period (typically 7-9 days) that establishes drinking preference without the drug. Saline injection i.p. had no effect on the drinking behavior of golden hamsters. Ethanol was provided as a 20% solution. Hamsters could be used more than once (but were not used more than three times) in a cycle of baseline saline injections followed by drug injections, each cycle with the drug at a different dose.
The response to daidzin treatment was computed as:
% Response=(Vo -Vd)×100/Vo

The nature of the next data set: physchem. As to conditions: water.
Data set [3] has as its target T2, ALDH-I (Homo sapiens, UniProt P05091).
T2 sequence (P05091 18-517): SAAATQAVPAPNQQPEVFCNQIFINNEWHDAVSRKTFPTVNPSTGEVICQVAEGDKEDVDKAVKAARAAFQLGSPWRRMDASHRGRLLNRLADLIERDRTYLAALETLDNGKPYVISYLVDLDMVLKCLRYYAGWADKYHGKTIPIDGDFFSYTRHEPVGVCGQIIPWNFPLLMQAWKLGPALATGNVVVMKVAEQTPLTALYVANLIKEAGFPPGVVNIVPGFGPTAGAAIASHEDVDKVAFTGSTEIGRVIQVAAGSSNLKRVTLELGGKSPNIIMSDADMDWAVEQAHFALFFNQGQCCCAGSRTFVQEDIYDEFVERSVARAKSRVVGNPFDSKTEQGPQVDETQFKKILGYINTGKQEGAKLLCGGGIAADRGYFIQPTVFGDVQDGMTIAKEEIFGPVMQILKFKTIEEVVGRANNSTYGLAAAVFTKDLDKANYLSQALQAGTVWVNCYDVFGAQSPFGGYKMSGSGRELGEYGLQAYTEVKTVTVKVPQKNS
The data set is described as follows: ALDH-I inhibition by structurally related compounds, acetaldehyde as substrate. Details: A liver sample (50 g wet weight) with the usual Caucasian ALDH phenotype (both ALDH-I and ALDH-II present); from tissue; host or cells: human liver (autopsy), purified by CM-52, AMP-agarose and DEAE HPLC. Type of data set: biochemical. The procedure:
as §1, §2, §3, §4
For controls, 10 .eta.L of methanol was added to the assay medium. In a standard ALDH-I assay, the assay medium contains 0.1 M sodium pyrophosphate pH 9.5, 0.15 M KCl, 1 mM NAD^+, 1% methanol, 5 μM acetaldehyde, 5-10 nM ALDH-I and various concentrations of inhibitor. […] (Fong et al., 1989, supra). The inhibition of ALDH-I by the inhibitors was calculated as: [formula]
as §6

Data set [4] deals with T2, ALDH-I. As to the kind of experiment: Reversibility of ALDH-I inhibition (preincubation, then dilution). Type of data set: biochemical. Details: A liver sample (50 g wet weight) with the usual Caucasian ALDH phenotype (both ALDH-I and ALDH-II present); from tissue; host or cells: human liver (autopsy), purified by CM-52, AMP-agarose and DEAE HPLC.
Data set [5] addresses T2, ALDH-I. The data set is described as follows: Inhibition kinetics of ALDH-I, initial velocity method, formaldehyde as substrate. As to conditions: for potency as ALDH-I inhibitor, fold less than that of daidzin / relative potency as ALDH-I inhibitor, in words: compared with daidzin. The procedure:
The kinetic data were analyzed by standard graphical methods.

Data set [6] deals with T1, ALDH-II. As to the kind of experiment: Inhibition kinetics of ALDH-II, initial velocity method, formaldehyde as substrate.
Substrate in data set [7]: C=O
As to the kind of experiment: purified protein, by the assay type. To be noted: pH 9.5; 25.0 °C.

Where [8] appears, read: 200 μM acetaldehyde, 1 mM NAD+, pH 9.5, 25° C., read-out: IC50, ALDH-II.
Setting [9] is: 5 μM acetaldehyde, 1 mM NAD+, pH 9.5, 25° C., read-out: IC50, ALDH-I.

As for `Cc1ccc2c(c1)OC(=O)CC2c1ccccc1` (stereo not shown) [7-Methyl-4-phenyl-3,4-dihydrocoumarin], on ALDH-II [1] (setting [8]), the IC50 amounted to 0.5 µM.

Turning to `c1ccc(-c2ccc3ccccc3n2)cc1` [2-phenylquinoline], in the data set on ALDH-I or ALDH-II, the “ALDH inhibition” value was “did not inhibit”.

Regarding `O=C(O)CCCCCOc1ccc2c(=O)c(-c3ccc(O)cc3)coc2c1` [Daidzein 7-(ω-carboxypentyl) ether, daidzein 7-(ω-carboxypentyl) ether], the Ki at ALDH-II [2] came to 0.45 µM. Further, the “suppression of alcohol intake, hamster C14” value in the data set with golden hamsters (trained hamster C14) turned out to be 56%. Moreover, the “suppression of alcohol intake, hamster D6” value in the data set on golden hamsters (trained hamster D6) came to 72%. In “physchem”, this molecule registered a solubility of 26 mM (≈ 9580 µg/mL).

As for `NC(=O)NC1NC(=O)NC1=O` (stereo not shown) [allantoin], the “ALDH inhibition” value in the data set with ALDH-I or ALDH-II is recorded as “not inhibitory”.

On to `O=c1cc(-c2ccccc2)oc2ccccc12` [Flavone], for which the IC50 came to 10 µM on ALDH-I [3] (setting [9]) and 5 µM on ALDH-II [1] (setting [8]).

Take `O=c1c(-c2ccccc2)c(-c2ccccc2)oc2cc(O)ccc12` [3-Phenyl-7-hydroxyflavone]: the IC50 at ALDH-I [3] (setting [9]) was determined as 10 µM; on ALDH-II [1] (setting [8]) it was 2 µM.

Turning to `O=c1cc(-c2ccccc2)c2ccc(O)cc2o1` [7-Hydroxy-4-phenylcoumarin], at ALDH-II [1] (setting [8]), the IC50 amounted to 0.3 µM.

`CN1CC(=O)NC1=O` [1-methylhydantoin]: the “ALDH inhibition” value with ALDH-I or ALDH-II was “not inhibitory”.

Turning to `COc1ccc(-c2cc(=O)c3c(O)cc(O)cc3o2)cc1` [Acacetin], the IC50 at ALDH-I [3] (setting [9]) and on ALDH-II [1] (setting [8]) was 5 µM throughout.

`CC(C)c1ccc(-c2coc3ccccc3c2=O)cc1` [4'-Isopropylisoflavone]: the IC50 on ALDH-I [3] (setting [9]) stood at 5 µM; on ALDH-II [1] (setting [8]), 1.5 µM.

For the molecule `COc1ccc(-c2coc3cc(O[C@@H]4O[C@H](CO)[C@@H](O)[C@H](O)[C@H]4O)ccc3c2=O)cc1` [Ononin], the IC50 at ALDH-II [1] (setting [8]) was 20 µM.

For `CC(=O)Oc1ccc2c(=O)c(Cc3ccccc3)c(C)oc2c1OC(C)=O` [3-Benzyl-7,8-diacetoxy-2-methylchromone], the results for the IC50 at ALDH-I [3] (setting [9]) and on ALDH-II [1] (setting [8]) were 10 µM and 3 µM, respectively.

For `CC1=C(c2ccccc2)C(=O)OC2CC(Cl)CCC12` (stereo not shown) [7-Chloro-4A,5,6,7,8,8A-hexahydro-4-methyl-3-phenylcoumarin], the IC50 at ALDH-I [3] (setting [9]) and at ALDH-II [1] (setting [8]) was 1 µM each time.

Take `O=C(O)CCCCCCCCCCOc1ccc2c(=O)c(-c3ccc(O)cc3)coc2c1` [Daidzein 7-(ω-carboxydecyl) ether, daidzein 7-(ω-carboxydecyl)ether]: the Ki on ALDH-II [2] worked out at 0.185 µM. In addition, the concentration in solution in “physchem” (solubility) came to 9 mM (≈ 3950 µg/mL).

As to `O=c1c(-c2ccc(O)cc2)coc2cc(O[C@@H]3O[C@H](CO)[C@@H](O)[C@H](O)[C@H]3O)cc(O)c12` [Genistin], at ALDH-I [3] (setting [9]), the IC50 was found to be 2 µM. Also, the “reversibility of ALDH-I inhibition” value at ALDH-I [4] was “reversible selective inhibitor of ALDH-I”. Moreover, the IC50 against ALDH-II [1] was > 20 µM. Also, on ALDH-I [5], the affinity, expressed as Ki, was 0.36 µM; the “selectivity of ALDH inhibition” value is listed as “selectively inhibited ALDH-I”; the “potency as ALDH-I inhibitor, fold less than that of daidzin” value is “approximately 10 fold”; the “relative potency as ALDH-I inhibitor, in words” value is “nearly an order of magnitude less potent as an inhibitor than daidzin”. Moreover, the Ki at ALDH-II [6] is > 20 µM.

In turn, `COc1cc(O)c2c(=O)c(-c3ccc(O)cc3)coc2c1` [Prunetin] displayed an IC50 on ALDH-I [3] of 1 µM. Besides, the IC50 at ALDH-II [1] amounted to 12 µM. For the same molecule, at ALDH-I [5], the Ki is 0.3 µM; the “selectivity of ALDH inhibition” value was “selectively inhibited ALDH-I”; the “potency as ALDH-I inhibitor, fold less than that of daidzin” value is “approximately 10 fold”; the “relative potency as ALDH-I inhibitor, in words” value was “nearly an order of magnitude less potent as an inhibitor than daidzin”. Besides, the Ki at ALDH-II [6] is 12 µM.

B1: human ALDH-I (Homo sapiens) (protein)
chain: T2 sequence (P05091 18-517)
On to B1, for which the Km in [7] was 0.8 mM.
